Assay results published in US8367328B2, “Method for synthesizing DNA” (Takara Bio Inc., priority 1998, dated 2013).

Target: T1, Pfu DNA Polymerase II (Pyrococcus furiosus, UniProt P81409+P81412)
T1 construct: made in house; host or cells: Escherichia coli JM109/pFU1001 (FERM BP-5579)
T1 sequence (P81409 1-1263): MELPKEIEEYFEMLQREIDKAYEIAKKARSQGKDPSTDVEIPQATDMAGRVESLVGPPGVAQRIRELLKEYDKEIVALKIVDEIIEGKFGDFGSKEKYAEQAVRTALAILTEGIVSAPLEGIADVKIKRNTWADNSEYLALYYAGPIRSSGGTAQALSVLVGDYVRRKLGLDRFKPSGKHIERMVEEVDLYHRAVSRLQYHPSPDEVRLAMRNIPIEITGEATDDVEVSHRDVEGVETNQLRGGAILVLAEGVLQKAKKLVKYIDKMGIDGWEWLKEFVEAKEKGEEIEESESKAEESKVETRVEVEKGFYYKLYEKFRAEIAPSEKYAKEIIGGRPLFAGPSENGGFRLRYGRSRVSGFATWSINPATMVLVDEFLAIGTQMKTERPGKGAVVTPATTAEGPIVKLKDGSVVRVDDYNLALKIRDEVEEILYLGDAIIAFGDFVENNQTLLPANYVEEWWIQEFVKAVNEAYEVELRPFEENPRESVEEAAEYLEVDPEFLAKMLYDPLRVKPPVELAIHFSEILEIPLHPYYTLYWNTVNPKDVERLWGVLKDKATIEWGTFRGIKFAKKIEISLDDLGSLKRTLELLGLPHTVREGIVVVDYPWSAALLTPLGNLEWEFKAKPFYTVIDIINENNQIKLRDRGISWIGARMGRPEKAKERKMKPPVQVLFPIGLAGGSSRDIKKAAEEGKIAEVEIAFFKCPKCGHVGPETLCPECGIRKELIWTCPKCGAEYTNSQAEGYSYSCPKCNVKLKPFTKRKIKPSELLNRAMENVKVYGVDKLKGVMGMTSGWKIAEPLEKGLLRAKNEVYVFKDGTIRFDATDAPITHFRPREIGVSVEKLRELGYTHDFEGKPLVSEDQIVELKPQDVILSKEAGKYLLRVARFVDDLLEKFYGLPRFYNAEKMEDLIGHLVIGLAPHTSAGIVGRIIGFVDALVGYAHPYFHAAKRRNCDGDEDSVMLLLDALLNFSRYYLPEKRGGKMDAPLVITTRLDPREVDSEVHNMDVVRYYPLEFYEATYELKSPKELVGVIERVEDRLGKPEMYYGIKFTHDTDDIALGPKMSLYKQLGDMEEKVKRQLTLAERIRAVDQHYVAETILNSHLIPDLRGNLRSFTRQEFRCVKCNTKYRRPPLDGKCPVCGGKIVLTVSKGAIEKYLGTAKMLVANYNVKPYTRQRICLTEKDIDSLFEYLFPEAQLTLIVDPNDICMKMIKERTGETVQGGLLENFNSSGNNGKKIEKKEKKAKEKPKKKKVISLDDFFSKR
T1 sequence (P81412 1-613): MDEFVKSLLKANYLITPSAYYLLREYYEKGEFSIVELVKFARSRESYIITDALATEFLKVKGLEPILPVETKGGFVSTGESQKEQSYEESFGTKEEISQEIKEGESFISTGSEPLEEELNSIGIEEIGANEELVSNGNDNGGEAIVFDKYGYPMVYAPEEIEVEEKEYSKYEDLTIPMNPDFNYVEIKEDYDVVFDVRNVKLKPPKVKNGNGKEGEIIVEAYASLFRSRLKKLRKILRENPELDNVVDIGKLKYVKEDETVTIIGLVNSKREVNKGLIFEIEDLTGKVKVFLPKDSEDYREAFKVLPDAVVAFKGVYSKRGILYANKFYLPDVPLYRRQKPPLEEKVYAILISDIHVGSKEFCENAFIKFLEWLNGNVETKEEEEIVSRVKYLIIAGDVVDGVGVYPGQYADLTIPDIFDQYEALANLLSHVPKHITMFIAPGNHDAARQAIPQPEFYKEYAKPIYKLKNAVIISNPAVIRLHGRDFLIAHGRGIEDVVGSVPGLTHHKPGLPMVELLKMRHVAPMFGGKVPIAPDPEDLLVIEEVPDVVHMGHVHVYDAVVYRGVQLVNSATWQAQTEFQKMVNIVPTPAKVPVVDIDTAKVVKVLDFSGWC
Experiment: PCR with Pfu DNA Polymerase II in the presence of acidic substances (λDNA template)
Assay type: biochemical
Settings: 1 kb fragment, 500 pg λDNA, primers λ1/λ3, 30 cycles 98°C 5 s–66°C 15 s
Experimental: A reaction mixture comprising λDNA as a template, primers λ1 and λ3 as a primer pair, and Pfu DNA Polymerase II as DNA polymerase was prepared, and PCR was carried out. The composition of the reaction mixture is as follows.
10 mM Tris-hydrochloric acid (pH 9.2), 75 mM potassium chloride, 6 mM magnesium chloride, 0.4 mM each of dATP, dCTP, dGTP and dTTP, 0.01% BSA, 1.25 U of Pfu DNA Polymerase II, 500 pg of λDNA, and 5 pmol each of primers λ1 and λ3 (a final volume being 25 μl). […]
Using the sulfated-fucose-containing Polysaccharide-F obtained in Example 6 described above, dextran sulfate powder (manufactured by Onco), or sodium alginate (100 to 150 centipoises, manufactured by Wako Pure Chemicals), the effects of these acidic substances on the activity of Pfu DNA Polymerase II were examined. A reaction mixture comprising λDNA as a template, primers λ1 and λ2 as a primer pair, and Pfu DNA Polymerase II as DNA polymerase was prepared, and PCR was carried out. The composition of the reaction mixture is as follows.
(§1) 10 mM Tris-hydrochloric acid, pH 9.2, 75 mM potassium chloride, 6 mM magnesium chloride, 0.4 mM each of dATP, dCTP, dGTP and dTTP, 0.01% BSA, 1.25 U of Pfu DNA Polymerase II, 100 pg of λDNA, and 5 pmol each of primers λ1 and λ2 (a final volume being 25 μl). Further, 10 ng of the sulfated-fucose-containing polysaccharide-F, 10 ng of dextran sulfate powder, or 1 μg of sodium alginate was respectively added to the above reaction mixture.
(§2) The reaction in 25 cycles was carried out for each of these reaction mixtures, wherein one cycle of reaction comprises a process consisting of 98° C., 5 seconds—66° C., 15 seconds. Thereafter, 5 μl of the resulting reaction mixture was subjected to electrophoresis on 1% agarose gel containing ethidium bromide in an amount of 0.00005%, whereby an amplified fragment was confirmed.
Further, studies were conducted on the effects of the sulfated-fucose-containing polysaccharide-F obtained in Example 6 described above, the sulfated-fucose-containing polysaccharide-U obtained in Example 7 described above, or sodium polyglutamate (manufactured by Sigma) as an acidic substance. A reaction mixture for PCR was prepared in the same manner as described above except for changing the amount of template λDNA to 500 pg and the primer pairs to primers λ1 and λ3. Five nanograms of the sulfated-fucose-containing polysaccharide-F, 5 ng, 10 ng, 20 ng or 30 ng each of the sulfated-fucose-containing polysaccharide-U, or 250 ng, 500 ng, 750 ng or 1000 ng each of sodium polyglutamate was respectively added to the above reaction mixture.
as §2, with “reaction” for “reaction in 25 cycles”, “in 30 cycles,” for “for each of these reaction mixtures,”, “After the termination of the reaction,” for “Thereafter,”
Using the sulfated-fucose-containing polysaccharide-F obtained in Example 6 described above, the effects on the activity of Pfu DNA Polymerase II were examined. A reaction mixture comprising λDNA as a template, primers λ1 and λ2 as a primer pair, and Pfu DNA Polymerase II as DNA polymerase was prepared, and PCR was carried out. The composition of the reaction mixture is as follows.
as §1, with “500” for “100”, “polysaccharide-F” for “polysaccharide-F, 10 ng of dextran sulfate powder, or 1 μg of sodium alginate”
The reaction in 30 cycles was carried out for each of these reaction mixtures, wherein one cycle of reaction comprises a process consisting of 98° C., 5 seconds—66° C., 15 seconds. […]

In the case of sodium polyglutamate, the “Amplification Results” value (amount added 250 ng) is reported as “+ (Amplification being observed)”, the “Amplification Results” value (amount added 500 ng) is reported as “+ (Amplification being observed)” and the “Amplification Results” value (amount added 750 ng) is reported as “++ (Intensive amplification being observed)”. For the same substance, the “Amplification Results” value (amount added 1000 ng) was “+ (Amplification being observed)”.
